Assay results published in patent US20210253651A1, “METHOD FOR PRODUCING ORGANIC COMPOUND-ENCAPSULATING FERRITIN” (Ajinomoto Co., Inc., priority 2018, published 2021).
Read-outs that look alike come from different tables or passages of the source. Each block holds one molecule with its values, some of them ahead of it.

Legend:
FTH ferritin [1] = target: T1, FTH ferritin (Homo sapiens, UniProt P02794); assay: one-step process incorporation of small molecule agents into FTH ferritin; type: physicochemical; conditions: for Number of agent incorporated / Incorporation efficiency (wt %): 60 min; for Optimal pH in reaction: pH of buffer giving the largest amount of incorporation within ferritin
T1 construct: made in house; host or cells: Escherichia coli BL21 (DE3), plasmid pET20-FTH
T1 sequence (P02794 whole entry): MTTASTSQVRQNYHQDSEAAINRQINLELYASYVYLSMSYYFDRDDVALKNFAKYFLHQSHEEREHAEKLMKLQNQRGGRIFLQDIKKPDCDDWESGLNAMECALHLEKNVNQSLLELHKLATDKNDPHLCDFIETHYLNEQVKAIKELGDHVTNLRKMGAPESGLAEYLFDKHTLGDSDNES
Description: All of the reactions were performed in 0.1 mL volume. […] The absorbances were measured using spectrophotometer (DU-800, Beckman Coulter Inc.) for these solutions, and the concentration of contained protein was determined using the protein assay CBB solution (Nacalai Tesque, Inc.) as well as bovine albumin as a standard. Absorbances at 280 nm and 480 nm were measured for Rhodamine B and Congo Red. […] Then, after the absorbances were calibrated based on the absorbances that were derived from the proteins and presumed by the amount of contained protein quantified using the protein assay CBB solution, the concentrations of small molecule agents were determined based on the calibration curves obtained by the absorbances of the molecules. […] As a result, the one-step process enabled incorporating also the small molecule agents with different physical properties such as molecular weight and pKa simply and easily.

[2] = cited from earlier work
[3] = pKa of the organic compound; type: physicochemical; conditions: average of plural pKa values
Source text: The pKa of the organic compound can be determined by a neutralization titration method (Kagaku Binran Kiso-hen I and II (Handbook of Chemistry, basic I and II) (Ver. 4) edited by The Chemical Society of Japan, Maruzen Publishing, 1993). […] When the organic compound has a single pKa value, the value is employed as the pKa of the organic compound.

[4] = cited from earlier work; remark: listed apart in the source
FTH ferritin [5] = target: T1, FTH ferritin; assay: one-step process incorporation of uranine into FTH ferritin; type: physicochemical
Description: All reactions were carried out in 1 mL volume. After the standing and centrifuging (at 15,000 rpm for one minute), the supernatant was injected into the desalting column PD-10 (Sephadex G-25 filled product, GE Healthcare Inc.) equilibrated with 10 mM Tris-HCl buffer (pH 8) to separate the protein from a reagent that was not encapsulated, for obtaining 3.5 mL of sample solution. The absorbance at 430 nm was measured using spectrophotometer (DU-800, Beckman Coulter Inc.) for the resulting solution in order to determine the concentration of uranine. The concentration of contained protein was determined using the protein assay CBB solution (Nacalai Tesque, Inc.) as well as bovine albumin as a standard.

FTH ferritin [6] = target: T1, FTH ferritin; assay: disassembly-reassembly process incorporation of uranine into FTH ferritin; type: physicochemical
Description: As a control, uranine was incorporated into ferritin in the disassembly-reassembly process. […] Then, 10 μL of 1 M Tris-HCl buffer (pH 9.0) was added for neutralization, and the resulting solution was left to stand for 15 minutes at room temperature. After the standing, 0.5 mL of water was added. After the resulting solution was centrifuged (at 15,000 rpm for one minute), the supernatant was injected into the desalting column PD-10 (Sephadex G-25 filled product, GE Healthcare Inc.) equilibrated with 10 mM Tris-HCl buffer (pH 8) to separate the protein from a reagent that was not encapsulated. Whole amount (3.5 mL) of the resulting solution was concentrated to 0.1 mL by centrifugal ultrafiltration using Vivaspin 20-100K (GE Healthcare Inc.).

Molecule: CC(C)(C)NCC(O)c1cc(O)cc(O)c1 (stereo not drawn) [Terbutaline]
pKa [3]: 9.31 | Incorporation efficiency (wt %) (FTH ferritin [1]; pH 4, 40° C.): 0.0 wt % | Number of agent incorporated (FTH ferritin [1]; pH 4, 40° C.): 0.0 | Incorporation efficiency (wt %) (FTH ferritin [1]; pH 6, 40° C.): 0.9 wt % | Number of agent incorporated (FTH ferritin [1]; pH 6, 40° C.): 19.5 | Incorporation efficiency (wt %) (FTH ferritin [1]; pH 8, 40° C.): 0.9 wt % | Number of agent incorporated (FTH ferritin [1]; pH 8, 40° C.): 21.0 | Incorporation efficiency (wt %) (FTH ferritin [1]; pH 10, 20° C.): 1.4 wt % | Number of agent incorporated (FTH ferritin [1]; pH 10, 20° C.): 32.8 | Incorporation efficiency (wt %) (FTH ferritin [1]; pH 10, 40° C.): 1.2 wt % | Number of agent incorporated (FTH ferritin [1]; pH 10, 40° C.): 27.1 | Incorporation efficiency (wt %) (FTH ferritin [1]; pH 10, 60° C.): 5.3 wt % | Number of agent incorporated (FTH ferritin [1]; pH 10, 60° C.): 126.8 | Optimal pH in reaction (FTH ferritin [1]): 10 | pKa ([2]; second pKa value): 9.76 | pKa ([2]; single or first pKa value): 8.86 | logP [4]: 0.9

Molecule: Cc1ncc(C[n+]2csc(CCO)c2C)c(N)n1 [Thiamine]
Incorporation efficiency (wt %) (FTH ferritin [1]; pH 4, 40° C.): 0.8 wt % | Number of agent incorporated (FTH ferritin [1]; pH 4, 40° C.): 11.6 | Incorporation efficiency (wt %) (FTH ferritin [1]; pH 6, 40° C.): 0.9 wt % | Number of agent incorporated (FTH ferritin [1]; pH 6, 40° C.): 13.9 | Incorporation efficiency (wt %) (FTH ferritin [1]; pH 8, 40° C.): 0.9 wt % | Number of agent incorporated (FTH ferritin [1]; pH 8, 40° C.): 13.7 | Incorporation efficiency (wt %) (FTH ferritin [1]; pH 10, 40° C.): 0.9 wt % | Number of agent incorporated (FTH ferritin [1]; pH 10, 40° C.): 13.6 | Optimal pH in reaction (FTH ferritin [1]): 6 | pKa ([2]; single or first pKa value): 5.5 | logP [4]: −4.6

Molecule: Rhodamine B
Incorporation efficiency (wt %) (FTH ferritin [1]; pH 4, 60° C.): 0.4 wt % | Number of agent incorporated (FTH ferritin [1]; pH 4, 60° C.): 4.3 | Incorporation efficiency (wt %) (FTH ferritin [1]; pH 5, 60° C.): 1.5 wt % | Number of agent incorporated (FTH ferritin [1]; pH 5, 60° C.): 16.7 | Incorporation efficiency (wt %) (FTH ferritin [1]; pH 6, 60° C.): 0.3 wt % | Number of agent incorporated (FTH ferritin [1]; pH 6, 60° C.): 3.5 | Incorporation efficiency (wt %) (FTH ferritin [1]; pH 7, 60° C.): 0.2 wt % | Number of agent incorporated (FTH ferritin [1]; pH 7, 60° C.): 2.3 | Incorporation efficiency (wt %) (FTH ferritin [1]; pH 8, 20° C.): 1.0 wt % | Number of agent incorporated (FTH ferritin [1]; pH 8, 20° C.): 11.1 | Incorporation efficiency (wt %) (FTH ferritin [1]; pH 8, 60° C.): 0.2 wt % | Number of agent incorporated (FTH ferritin [1]; pH 8, 60° C.): 1.8 | Incorporation efficiency (wt %) (FTH ferritin [1]; pH 9, 30° C.): 0.7 wt % | Number of agent incorporated (FTH ferritin [1]; pH 9, 30° C.): 7.6 | Incorporation efficiency (wt %) (FTH ferritin [1]; pH 9, 40° C.): 0.4 wt % | Number of agent incorporated (FTH ferritin [1]; pH 9, 40° C.): 3.9 | Incorporation efficiency (wt %) (FTH ferritin [1]; pH 9, 50° C.): 0.2 wt % | Number of agent incorporated (FTH ferritin [1]; pH 9, 50° C.): 2.6 | Incorporation efficiency (wt %) (FTH ferritin [1]; pH 9, 60° C.): 0.2 wt % | Number of agent incorporated (FTH ferritin [1]; pH 9, 60° C.): 2.5 | Incorporation efficiency (wt %) (FTH ferritin [1]; pH 10, 40° C.): 0.3 wt % | Number of agent incorporated (FTH ferritin [1]; pH 10, 40° C.): 3.2 | Incorporation efficiency (wt %) (FTH ferritin [1]; pH 10, 50° C.): 0.2 wt % | Number of agent incorporated (FTH ferritin [1]; pH 10, 50° C.): 2.6 | Incorporation efficiency (wt %) (FTH ferritin [1]; pH 10, 60° C.): 0.6 wt % | Number of agent incorporated (FTH ferritin [1]; pH 10, 60° C.): 6.6 | Optimal pH in reaction (FTH ferritin [1]): 5 | pKa ([2]; single or first pKa value): 3.1 | logP [4]: 1.78

Second part, led by results:

Number of agent incorporated (FTH ferritin [1]; pH 4, 40° C.): 6.4 | Number of agent incorporated (FTH ferritin [1]; pH 6, 40° C.): 6.5 | Number of agent incorporated (FTH ferritin [1]; pH 8, 40° C.): 6.4 | Number of agent incorporated (FTH ferritin [1]; pH 10, 40° C.): 7.7 | Optimal pH in reaction (FTH ferritin [1]): 10
Molecule: Cc1cc2nc3c(=O)[nH]c(=O)nc-3n(C[C@H](O)[C@H](O)[C@H](O)CO)c2cc1C [Riboflavin]
pKa ([2]; single or first pKa value): 10.2

pKa (average) [3]: 4.4 | amount of encapsulated uranine, one-step vs disassembly-reassembly process (FTH ferritin [5]): 2.7 fold | Uranine (FTH ferritin [5]; 30° C., pH 3): 71.0 µM | Uranine/FTH ferritin (FTH ferritin [5]; 30° C., pH 3): 99.2 | Uranine (FTH ferritin [5]; 30° C., pH 5): 135.6 µM | Uranine/FTH ferritin (FTH ferritin [5]; 30° C., pH 5): 183.6 | Uranine (FTH ferritin [5]; 30° C., pH 7): 68.5 µM | Uranine/FTH ferritin (FTH ferritin [5]; 30° C., pH 7): 90.0 | Uranine (FTH ferritin [5]; 60° C., pH 3): 198.9 µM | Uranine/FTH ferritin (FTH ferritin [5]; 60° C., pH 3): 267.5 | Uranine (FTH ferritin [5]; 60° C., pH 5): 201.4 µM | Uranine/FTH ferritin (FTH ferritin [5]; 60° C., pH 5): 265.3 | Uranine (FTH ferritin [5]; 60° C., pH 7): 93.4 µM | Uranine/FTH ferritin (FTH ferritin [5]; 60° C., pH 7): 137.7 | optimum value of the reaction pH presumed from average pKa (FTH ferritin [5]; presumed from pH=2.6+0.6 pKa relation): ~5 | Uranine (FTH ferritin [6]; uranine in reaction 1 mM): 864.5 µM | Uranine/FTH ferritin (FTH ferritin [6]; uranine in reaction 1 mM): 36.7 | Uranine (FTH ferritin [6]; uranine in reaction 5 mM): 1186.3 µM | Uranine/FTH ferritin (FTH ferritin [6]; uranine in reaction 5 mM): 47.2 | Uranine (FTH ferritin [6]; uranine in reaction 10 mM): 1382.1 µM | Uranine/FTH ferritin (FTH ferritin [6]; uranine in reaction 10 mM): 52.6 | Uranine (FTH ferritin [6]; uranine in reaction 50 mM): 1764.2 µM | Uranine/FTH ferritin (FTH ferritin [6]; uranine in reaction 50 mM): 72.5 | Uranine (FTH ferritin [6]; uranine in reaction 100 mM): 2106.1 µM | Uranine/FTH ferritin (FTH ferritin [6]; uranine in reaction 100 mM): 100.2 | Uranine (FTH ferritin [6]; uranine in reaction 300 mM): 2405.1 µM | Uranine/FTH ferritin (FTH ferritin [6]; uranine in reaction 300 mM): 90.8
Molecule: O=C([O-])c1ccccc1-c1c2ccc(=O)cc-2oc2cc([O-])ccc12.[Na+].[Na+] [Uranine]
pKa ([2]; second pKa value): 4.4 | pKa ([2]; single or first pKa value): 2.2 | pKa ([2]; third printed pKa value): 6.7
